Broadly, the IC50 is the midpoint of a concentration-inhibition curve.

The target in this assay is T1, TRKA (Homo sapiens, UniProt P04629).
T1 construct: aa 441-; 4 nM; 40 uM; 35 min; (NTRK1); 796; His; purchased Invitrogen PV3144
T1 sequence (P04629 441-796): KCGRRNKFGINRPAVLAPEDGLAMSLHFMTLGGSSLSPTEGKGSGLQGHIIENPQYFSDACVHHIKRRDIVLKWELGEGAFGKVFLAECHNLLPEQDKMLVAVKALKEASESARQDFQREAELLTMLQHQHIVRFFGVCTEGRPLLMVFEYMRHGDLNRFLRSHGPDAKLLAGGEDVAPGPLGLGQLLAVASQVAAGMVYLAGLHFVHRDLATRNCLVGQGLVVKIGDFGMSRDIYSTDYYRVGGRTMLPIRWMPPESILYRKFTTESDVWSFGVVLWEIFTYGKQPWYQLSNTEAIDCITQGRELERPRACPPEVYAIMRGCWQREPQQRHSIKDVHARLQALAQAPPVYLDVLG
Nature of the assay: Isolated TRK enzyme assay (HTRF KinEASE-TK kit, PV3144 TrkA enzyme assay). As to conditions: recombinant His-tagged cytoplasmic domain aa 441-796, 4 nM enzyme, 40 uM ATP, 35 min, arithmetic mean where more than one reading. It is filed as biochemical. As for the experimental part: Isolated TRK Enzyme assays use the HTRF KinEASE-TK kit (Cisbio Cat#62TKOPEJ) with recombinant His-tagged cytoplasmic domains of TRKA receptor sourced from Invitrogen (see table below). This activity-assay measures the phosphorylation of tyrosine residues within a substrate from the HTRF kit which has been validated by Cisbio for a variety of tyrosine kinases including the TRK receptors.
0.5 mM stock solutions of test compounds are prepared and serially diluted in 100% DMSO. […] Greiner low volume black plates containing 0.2 ul of serially diluted compound, standard and HPE/ZPE are created using the Bravo nanolitre dispenser. 1× enzyme buffer is prepared from 5× Enzymatic Buffer from the Cisbio KinEASE TK kit using MilliQ water. The buffer is then supplemented with 10 mM MgCl and 2 mM DTT (both from Sigma). […] 2×FAC of enzyme and 2×FAC ATP diluted in 1× complete enzyme buffer is incubated at room temperature for 20 minutes to preactivate the enzyme. Following this preactivation step, 5 ul/well of enzyme+ATP mix is added using a Multidrop Micro to the assay plate, spotted with 0.2 ul 100% DMSO compound. This is left for 20 mins at room temperature before adding 5 ul of 2 uM TK-substrate-Biotin (from the Cisbio kit) diluted in 1× enzyme buffer (1 uM FAC) using the Multidrop Micro. The reaction is incubated at room temperature for the optimized assay reaction time (see table).
After the Detection Reagent addition, plates are covered and incubated at room temperature for 60 minutes. HTRF signal is read using an Envision reader, measured as a ratio of emissions at two different wavelengths, 620 nm and 665 nm. […] Test compound data are expressed as percentage inhibition defined by HPE and ZPE values for each plate.
Percentage inhibition in the presence of test compound is plotted against compound concentration on a log scale to determine an IC50 from the resultant sigmoid curve. Cell Based Assays were carried out using Cell lines from DiscoveRx utilising their PathHunter technology and reagents in an antagonist assay:
Where more than one reading was taken, the arithmetic mean is presented.
(In TR-FRET formats the signal depends on donor and acceptor labels being close together.)
Take `CCN(CC)C(=O)c1cnc(N)c(OC2CN(C(=O)Cc3ccc(OC(F)(F)F)cc3)CC2(C)OC)c1` (racemic) [Example 25, Racemic-6-amino-N,N-diethyl-5-[(4-methoxy-4-methyl-1-{[4-(trifluoromethoxy)phenyl]acetyl}pyrrolidin-3-yl)oxy]pyridine-3-carboxamide]: the IC50 is 129 nM.

As for `NC(=O)c1cnc(N)c(OC2CN(C(=O)Cc3ccc(OC(F)(F)F)cc3)CC23CC3)c1` (stereo not drawn) [Example 18, 6-amino-5-[(5-{[4-(trifluoromethoxy)phenyl]acetyl}-5-azaspiro[2.4]hept-7-yl)oxy]pyridine-3-carboxamide], the IC50 turned out to be 110 nM.

Consider `CC1(C)CN(C(=O)Cc2ccc(OC(F)(F)F)cc2)C[C@@H]1Oc1cc(C(N)=O)cnc1N` [Example 19, (R)-6-amino-5-[(4,4-dimethyl-1-{[4-(trifluoromethoxy)phenyl]acetyl}pyrrolidin-3-yl)oxy]pyridine-3-carboxamide], for which the concentration for half-maximal inhibition (IC50) is 11.8 nM.

Take `NC(=O)c1cnc(N)c(OCC2CN(C(=O)Cc3ccc(OC(F)(F)F)cc3)CC2(F)F)c1` (single isomer, unassigned) [Example 15]: the IC50 amounted to 15.8 nM.

`C[C@H]1CN(C(=O)Cc2ccc(OC(F)(F)F)cc2)C[C@@H]1Oc1cc(C(=O)NCC#N)cnc1N` [Example 22, (3R,4S)-6-amino-N-(cyanomethyl)-5-[(4-methyl-1-{[4-(trifluoromethoxy)phenyl]acetyl}pyrrolidin-3-yl)oxy]pyridine-3-carboxamide]: the IC50 was 330 nM.

Turning to `Nc1ncc(C(=O)NCCO)cc1OC1CN(C(=O)Cc2ccc(OC(F)(F)F)cc2)CC1(F)F` (single isomer, unassigned) [Example 8], the IC50 was 148 nM.

Consider `CNC(=O)c1cnc(N)c(OC2CN(C(=O)Cc3ccc(OC(F)(F)F)cc3)CC23CC3)c1` (stereo not drawn) [Example 16, 6-amino-N-methyl-5-[(5-{[4-(trifluoromethoxy)phenyl]acetyl}-5-azaspiro[2.4]hept-7-yl)oxy]pyridine-3-carboxamide], for which the 50% inhibitory concentration (IC50) is 72.4 nM.

For `C[C@H]1CN(C(=O)Cc2ccc(OC(F)(F)F)cc2)C[C@@H]1Oc1cc(C(=O)NCC(C)(C)O)cnc1N` [Example 23, (3R,4S)-6-amino-N-(2-hydroxy-2-methylpropyl)-5-[(4-methyl-1-{[4-(trifluoromethoxy)phenyl]acetyl}pyrrolidin-3-yl)oxy]pyridine-3-carboxamide], the IC50 came to 2100 nM.

In the case of `CCNC(=O)c1cnc(N)c(O[C@H]2CN(C(=O)Cc3ccc(OC(F)(F)F)cc3)C[C@@H]2C)c1` [Example 21, (3R,4S)-6-amino-N-ethyl-5-[(4-methyl-1-{[4-(trifluoromethoxy)phenyl]acetyl}pyrrolidin-3-yl)oxy]pyridine-3-carboxamide], the IC50 came out at 126 nM.

For `NC(=O)c1cnc(N)c(COC2CN(C(=O)Cc3ccc(OC(F)(F)F)cc3)CC2(F)F)c1` (single isomer, unassigned) [Example 5], the IC50 stood at 10.8 nM.

For the compound `CNC(=O)c1cnc(N)c(O[C@H]2CN(C(=O)Cc3ccc(OC(F)(F)F)cc3)CC2(C)C)c1` [Example 20, (R)-6-amino-5-[(4,4-dimethyl-1-{[4-(trifluoromethoxy)phenyl]acetyl}pyrrolidin-3-yl)oxy]-N-methylpyridine-3-carboxamide], the 50% inhibitory concentration (IC50) stood at 12.3 nM.

`NC(=O)c1cnc(N)c(OCC2CN(C(=O)Cc3ccc(OC(F)(F)F)cc3)CC2(F)F)c1` (racemic) [Example 13, Racemic-6-amino-5-[(4,4-difluoro-1-{[4-(trifluoromethoxy)phenyl]acetyl}pyrrolidin-3-yl)methoxy]pyridine-3-carboxamide]: the half-inhibitory concentration (IC50) was 30.3 nM.

`CNC(=O)c1cnc(N)c(OCC2CN(C(=O)Cc3ccc(OC(F)(F)F)cc3)CC2(F)F)c1` (single isomer, unassigned) [Example 11]: the IC50 worked out at 11.6 nM.

Consider `CNC(=O)c1cnc(N)c(OCC2CN(C(=O)Cc3ccc(OC(F)(F)F)cc3)CC2(F)F)c1` (single isomer, unassigned) [Example 12], for which the 50% inhibitory concentration (IC50) stood at 1250 nM.

Regarding `CNC(=O)c1cnc(N)c(O[C@H]2CN(C(=O)Cc3ccc(OC(F)(F)F)cc3)C[C@@H]2C)c1` [Example 17, (3R,4S)-6-amino-N-methyl-5-[(4-methyl-1-{[4-(trifluoromethoxy)phenyl]acetyl}pyrrolidin-3-yl)oxy]pyridine-3-carboxamide], the IC50 was found to be 105 nM.

Take `NC(=O)c1cnc(N)c(COC2CN(C(=O)Cc3ccc(OC(F)(F)F)cc3)CC2(F)F)c1` (single isomer, unassigned) [Example 6]: the half-maximal inhibitory concentration (IC50) was 630 nM.

`CC(C)(O)CNC(=O)c1cnc(N)c(OC2CN(C(=O)Cc3ccc(OC(F)(F)F)cc3)CC2(F)F)c1` (racemic) [Example 10, (S)-6-amino-5-[(4,4-difluoro-1-{[4-(trifluoromethoxy)phenyl]acetyl}pyrrolidin-3-yl)oxy]-N-(2-hydroxy-2-methylpropyl)pyridine-3-carboxamide]: the half-inhibitory concentration (IC50) was 8660 nM.

For `CNC(=O)c1cnc(N)c(OC2CN(C(=O)Cc3ccc(OC(F)(F)F)cc3)CC2(C)OC)c1` (racemic) [Example 24, Racemic-6-amino-5-[(4-methoxy-4-methyl-1-{[4-(trifluoromethoxy)phenyl]acetyl}pyrrolidin-3-yl)oxy]-N-methylpyridine-3-carboxamide], the IC50 was 55.5 nM.
